# In US12629364B2, “Methods of treating cancers overexpressing CARM1 with EZH2 inhibitors and platinum-based antineoplastic drugs” (The Wistar Institute of Anatomy and Biology, priority 2016, dated 2026):
# Test system: CARM1-expressing cell lines (A1847, OVCAR10, and PEO4)
# Assay: Colony formation assay / GSK126 response curves, CARM1-expressing ovarian cancer cell lines
# Type: cell-based, Human
# From the text: FIG. 5 illustrates the results of a colony formation assay with a panel of normal and ovarian cancer cell lines in the presence of GSK126.
# FIG. 7 illustrates GSK 126 response curves in a panel of normal and ovarian cancer cell lines. Error bars indicate standard error (S.E.) for n=3. *, p≤0.05.
# FIG. 8 illustrates IC50 results for the panel of normal and ovarian cancer cell lines.
# FIG. 33 illustrates relative growth of the indicated HOSE, FTE, and EOC cancer cell lines with high or low CARM1 expression treated with 10 μM GSK126 or vehicle in a colony formation assay as determined by NIH Image J quantification.
# 500 to 5,000 cell were plated into a 24 well tissue culture plate and treated with the indicated compounds. Medium was changed every three days with appropriate drug doses for 12 days or until control wells became confluent. Colonies were washed twice with PBS and fixed with 10% methanol and 10% acetic acid in distilled water. Fixed colonies were stained with 0.005% crystal violet. Integrated density was measured using NIH ImageJ software.
smiles,measurement,setting,value
"CC[C@H](C)n1cc(C)c2c(C(=O)NCc3c(C)cc(C)[nH]c3=O)cc(-c3ccc(N4CCNCC4)nc3)cc21 [GSK126, (S)-1-(sec-butyl)-N-((4,6-dimethyl-2-oxo-1,2-dihydropyridin-3-yl)methyl)-3-methyl-6-(6-(piperazin-1-yl)pyridin-3-yl)-1H-indole-4-carboxamide]",relation of CARM1 expression level and cellular response,"10 μM, panel of EOC cell lines",correlation between CARM1 expression levels and cellular response
same,IC50 values from response curves,"CARM1-expressing cell lines (A1847, OVCAR10, PEO4) versus panel of normal and ovarian cancer cell lines, values only in FIG. 8",Significantly reduced IC50 values
